Where a name gives a salt, the structure may show the parent alone.
Tests used:
[1] = target: EGFR Δ19del/T790M/C797S (Homo sapiens, UniProt P00533, T790M/C797S, form not given); assay: Kinase assay (mobility shift) for EGFR Δ19del/T790M/C797S; type: biochemical; settings: read-out: EGFR Δ 19del/T790M/C797S IC50
Description: (§1) Enzyme reaction protocol are as followed:
(§2) 1. Preparing 1* Kinase buffer as followed.
(§3) 2. Preparing Compound Concentration Gradient: Compounds were tested at a concentration of 300 nM, diluted to 100-fold final concentration in 100% DMSO solution in 96-well plates, and compounds were diluted 3 times with Precision, 10 concentrations. Each concentration of the compound was then further diluted to a 5-fold final concentration of the intermediate dilution solution using 1* Kinase buffer.
(§4) 3. 5 μL of each of the prepared intermediate dilution compounds was separately added to the compound wells of the 384-well plate, and each concentration was tested for duplicate wells; 5 μL of 5% DMSO was added to the negative control wells and the positive control wells, respectively.
(§5) 4. 2.5-fold final concentration of the kinase solution was prepared using 1*Kinase buffer.
(§6) 6. Centrifuge at 1000 rpm for 30 seconds, shake the reaction plate and incubate for 10 minutes at room temperature.
(§7) 8. 10 μL of a 2.5-fold final concentration of a mixed solution of ATP and a substrate was added to initiate the reaction.
(§8) 9. Centrifuge the 384-well plate at 1000 rpm for 30 seconds, mix by shaking, and incubate at room temperature for the corresponding time.
(§9) 10. Add 30 μL of the stop solution to stop the kinase reaction, centrifuge at 1000 rpm for 30 seconds, and mix by shaking.
(§10) 11. Read the conversion rate with Caliper EZ Reader.
(§11) Convert conversion values to inhibition values:
(§12) Percent inhibition=(max−conversion % sample)/(max−min)*100.
(§13) “max” stands for the mean value of the positive control well ratio; “min” stands for the mean value of the negative control well; conversion % sample: sample conversion reading.
(§14) Fit the data in log(inhibitor) vs. response Variable slope of GraphPad Prism 5 to obtain IC50 values.
(§15) Equation used is: Y=Bottom+(Top−Bottom)/(1+(IC50/X)*HillSlope)

[2] = target: T1, Ba/F3-L858R/T790M/C797S (Homo sapiens, UniProt P00533, T790M/C797S/L858R, cells depend on it); assay: Ba/F3-L858R/T790M/C797S cells proliferation assay; type: cell-based; settings: cell proliferation, 72 h, CellTiter Glo; class symbols; read-out: BaF3 L858R/T790M/C797S IC50
T1 construct: BaF3 L858R/T790M/C797S IC50; other: cell proliferation, 72 h, CellTiter Glo; class symbols; numeric values
Description: (§16) a) The medium was preheated in a 37 water bath in advance.
(§17) b) Remove the cryogenic vials from the liquid nitrogen tank, quickly put it into a 37° C. water bath, and completely melt it in 1 min.
(§18) c) Transfer the cell suspension to a 15 mL centrifuge tube containing 8 mL medium, centrifuge 1000 rpm, 5 min,
(§19) d) Discard the supernatant, resuspend the cells in 1 mL medium, and transfer to a 75 cm^2 flask containing 15 mL medium, culture the cells in an incubator at 37° C., 5% CO2.
(§20) a) The medium was preheated in a 37° C.; water bath in advance.
(§21) b) Collect cell to a 15 mL centrifuged tube, centrifuge at 1000 rpm for 5 min. Discard the supernatant, count, and make the cell density at 1×10^4 cells/mL, then place it in a 37° C., 5% CO2 incubator.
(§22) b) The above compound solution was diluted 1:20 times with culture medium to prepare a 10 fold working solution;
(§23) a) Take cells in log phase growth, centrifuge at 1000 rpm for 5 min, then resuspend the cells with culture medium, then count cells;
(§24) b) Cells were seeded to 96-well cell culture plate with density at 2000 cells/well;
(§25) The blank control well was a culture medium (0.5% DMSO);
(§26) b) The cells were incubated for an additional 72 h in the incubator.
(§27) a) Remove the 96-well cell culture plate and add 50 μl of CTG reagent (CellTiter Glo kit, promega, Cat #G7573).
(§28) b) Plate was shaked for 2 min and then let it cool for 10 min at room temperature.
(§29) c) The Luminescence signal value was read using a PerkinElmer reader.
(§30) Experimental Data Analysis
(§31) Data were analyzed using GraphPad Prism 6.0 software to obtain a fitted curve of compound activity.
(§32) Y=Bottom+(Top−Bottom)/(1+10^((Log IC50−X)*Hill Slope));
(§33) The cells proliferation assay results are expressed with IC50, shown as Table 2.

[3] = target: Ba/F3-Δ19del/T790M/C797S (Homo sapiens, UniProt P00533, T790M/C797S, cells depend on it, form not given); assay: Ba/F3-Δ19del/T790M/C797S cells proliferation assay; type: cell-based; settings: cell proliferation, 72 h, CellTiter Glo; class symbols; read-out: BaF3 Δ 19del/T790M/C797S IC50
Description: as §16, §17, §18, §19, §20, §21, §22, §23, §24, §25, §26, §27, §28, §29, §30, §31, §32, §33

[4] = test system: HCC827(Δ19del); assay: HCC827 cells proliferation assay; type: cell-based; settings: Homo sapiens, HCC827; cell proliferation, 72 h, CellTiter Glo; class symbols; read-out: HCC827 IC50
Description: (§34) Test 3 H1975 and HCC827 Cells Proliferation Assay
(§35) a) The medium was preheated in a 37° C. water bath in advance.
as §17
(§36) c) Transfer the cell suspension to a 15 mL centrifuge tube containing 8 mL medium, centrifuge 1000 rpm, 5 min.
as §19, §21, §22, §23
(§37) b) Cells were seeded to 96-well cell culture plate with density at 2000 cells/well (suitable for H1975 cell) and at 2500 cells/well (suitable for HCC827 cell);
as §25, §26, §27, §28, §29, §30, §31
(§38) Y=Bottom+(Top−Bottom)/(1+10^((Log IC50−X)*HillSlope));
as §33

[5] = test system: H1975(L858R/T790M); assay: H1975 cells proliferation assay; type: cell-based; settings: Homo sapiens, NCI-H1975; cell proliferation, 72 h, CellTiter Glo; class symbols; read-out: H1975 IC50
Description: as §34, §35, §17, §36, §19, §21, §22, §23, §37, §25, §26, §27, §28, §29, §30, §31, §38, §33

[6] = target: EGFR L858R (Homo sapiens, UniProt P00533, L858R); assay: Kinase assay (mobility shift) for EGFR L858R; type: biochemical
Description: as §1, §2, §3, §4, §5, §6, §7, §8, §9, §10, §11, §12, §13, §14, §15

[7] = target: EGFR T790M/L858R (Homo sapiens, UniProt P00533, L858R/T790M); assay: Kinase assay (mobility shift) for EGFR T790M/L858R; type: biochemical
Description: as §1, §2, §3, §4, §5, §6, §7, §8, §9, §10, §11, §12, §13, §14, §15

T1 sequence (P00533 whole entry T790M/C797S/L858R): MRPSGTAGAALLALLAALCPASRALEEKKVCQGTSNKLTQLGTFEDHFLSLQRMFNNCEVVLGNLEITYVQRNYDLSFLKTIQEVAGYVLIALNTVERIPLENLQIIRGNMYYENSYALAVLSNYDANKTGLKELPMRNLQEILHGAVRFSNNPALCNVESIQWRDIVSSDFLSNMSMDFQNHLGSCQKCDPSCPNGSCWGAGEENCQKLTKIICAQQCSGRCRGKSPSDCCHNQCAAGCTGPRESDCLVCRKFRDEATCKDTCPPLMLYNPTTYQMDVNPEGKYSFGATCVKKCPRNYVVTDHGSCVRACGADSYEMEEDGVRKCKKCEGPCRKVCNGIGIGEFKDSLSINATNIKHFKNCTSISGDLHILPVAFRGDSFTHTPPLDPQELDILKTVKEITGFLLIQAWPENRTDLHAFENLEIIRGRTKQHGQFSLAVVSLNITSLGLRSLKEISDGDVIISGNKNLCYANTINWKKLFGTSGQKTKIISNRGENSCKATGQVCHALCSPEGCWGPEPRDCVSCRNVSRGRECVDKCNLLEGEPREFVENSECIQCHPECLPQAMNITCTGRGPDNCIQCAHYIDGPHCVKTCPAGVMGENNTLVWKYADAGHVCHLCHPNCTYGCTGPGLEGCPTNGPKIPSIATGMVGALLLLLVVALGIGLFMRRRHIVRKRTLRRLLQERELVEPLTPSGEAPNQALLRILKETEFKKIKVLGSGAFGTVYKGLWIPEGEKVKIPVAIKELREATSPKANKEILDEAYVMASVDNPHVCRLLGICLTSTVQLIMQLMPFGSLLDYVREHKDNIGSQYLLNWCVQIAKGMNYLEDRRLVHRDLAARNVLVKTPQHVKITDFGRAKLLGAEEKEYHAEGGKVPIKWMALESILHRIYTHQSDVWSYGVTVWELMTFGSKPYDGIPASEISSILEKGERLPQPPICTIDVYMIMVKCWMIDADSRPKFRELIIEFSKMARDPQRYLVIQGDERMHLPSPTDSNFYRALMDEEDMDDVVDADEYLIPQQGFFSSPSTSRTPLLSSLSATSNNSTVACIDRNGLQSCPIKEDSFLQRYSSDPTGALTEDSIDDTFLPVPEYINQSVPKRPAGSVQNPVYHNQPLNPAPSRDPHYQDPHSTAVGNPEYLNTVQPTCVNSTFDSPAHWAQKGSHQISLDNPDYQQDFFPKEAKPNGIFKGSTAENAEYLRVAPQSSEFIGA
Chain of EGFR Δ19del/T790M/C797S (P00533 with tags, fused parts or gaps DEL746-750/T790M/C797S, form open): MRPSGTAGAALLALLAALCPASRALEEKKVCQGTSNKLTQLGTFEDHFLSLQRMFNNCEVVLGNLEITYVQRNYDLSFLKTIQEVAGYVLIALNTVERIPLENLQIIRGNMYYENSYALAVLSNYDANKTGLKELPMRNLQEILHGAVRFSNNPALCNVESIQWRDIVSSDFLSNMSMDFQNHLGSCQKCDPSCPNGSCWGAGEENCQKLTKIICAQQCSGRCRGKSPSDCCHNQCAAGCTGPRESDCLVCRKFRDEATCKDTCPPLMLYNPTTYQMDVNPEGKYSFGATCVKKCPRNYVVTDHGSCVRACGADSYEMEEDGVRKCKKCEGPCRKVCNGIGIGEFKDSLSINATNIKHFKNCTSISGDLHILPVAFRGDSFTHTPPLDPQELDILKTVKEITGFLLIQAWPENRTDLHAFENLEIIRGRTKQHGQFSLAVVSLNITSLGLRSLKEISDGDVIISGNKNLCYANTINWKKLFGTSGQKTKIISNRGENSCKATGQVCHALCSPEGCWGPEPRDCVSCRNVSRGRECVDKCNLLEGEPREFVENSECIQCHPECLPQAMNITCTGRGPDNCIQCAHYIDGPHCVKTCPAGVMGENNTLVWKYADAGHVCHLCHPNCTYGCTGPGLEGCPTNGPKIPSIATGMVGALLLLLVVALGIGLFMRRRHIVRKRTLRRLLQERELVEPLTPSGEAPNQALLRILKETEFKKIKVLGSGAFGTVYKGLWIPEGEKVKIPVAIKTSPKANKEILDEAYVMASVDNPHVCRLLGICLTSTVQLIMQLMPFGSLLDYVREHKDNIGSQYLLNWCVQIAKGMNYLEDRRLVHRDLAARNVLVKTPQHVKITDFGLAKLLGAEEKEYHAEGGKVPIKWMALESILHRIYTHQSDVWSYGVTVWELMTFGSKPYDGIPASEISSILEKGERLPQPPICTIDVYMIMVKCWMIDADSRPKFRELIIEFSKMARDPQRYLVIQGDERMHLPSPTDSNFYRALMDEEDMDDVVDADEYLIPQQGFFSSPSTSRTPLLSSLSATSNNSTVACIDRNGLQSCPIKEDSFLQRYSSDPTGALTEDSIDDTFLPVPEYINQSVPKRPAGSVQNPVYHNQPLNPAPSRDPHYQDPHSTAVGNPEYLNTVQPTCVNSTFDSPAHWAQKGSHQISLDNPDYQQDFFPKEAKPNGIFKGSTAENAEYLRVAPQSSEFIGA
Chain of Ba/F3-Δ19del/T790M/C797S (P00533 with tags, fused parts or gaps DEL746-750/T790M/C797S, form open): as above
Chain of EGFR T790M/L858R (P00533 25-1210 T790M/L858R): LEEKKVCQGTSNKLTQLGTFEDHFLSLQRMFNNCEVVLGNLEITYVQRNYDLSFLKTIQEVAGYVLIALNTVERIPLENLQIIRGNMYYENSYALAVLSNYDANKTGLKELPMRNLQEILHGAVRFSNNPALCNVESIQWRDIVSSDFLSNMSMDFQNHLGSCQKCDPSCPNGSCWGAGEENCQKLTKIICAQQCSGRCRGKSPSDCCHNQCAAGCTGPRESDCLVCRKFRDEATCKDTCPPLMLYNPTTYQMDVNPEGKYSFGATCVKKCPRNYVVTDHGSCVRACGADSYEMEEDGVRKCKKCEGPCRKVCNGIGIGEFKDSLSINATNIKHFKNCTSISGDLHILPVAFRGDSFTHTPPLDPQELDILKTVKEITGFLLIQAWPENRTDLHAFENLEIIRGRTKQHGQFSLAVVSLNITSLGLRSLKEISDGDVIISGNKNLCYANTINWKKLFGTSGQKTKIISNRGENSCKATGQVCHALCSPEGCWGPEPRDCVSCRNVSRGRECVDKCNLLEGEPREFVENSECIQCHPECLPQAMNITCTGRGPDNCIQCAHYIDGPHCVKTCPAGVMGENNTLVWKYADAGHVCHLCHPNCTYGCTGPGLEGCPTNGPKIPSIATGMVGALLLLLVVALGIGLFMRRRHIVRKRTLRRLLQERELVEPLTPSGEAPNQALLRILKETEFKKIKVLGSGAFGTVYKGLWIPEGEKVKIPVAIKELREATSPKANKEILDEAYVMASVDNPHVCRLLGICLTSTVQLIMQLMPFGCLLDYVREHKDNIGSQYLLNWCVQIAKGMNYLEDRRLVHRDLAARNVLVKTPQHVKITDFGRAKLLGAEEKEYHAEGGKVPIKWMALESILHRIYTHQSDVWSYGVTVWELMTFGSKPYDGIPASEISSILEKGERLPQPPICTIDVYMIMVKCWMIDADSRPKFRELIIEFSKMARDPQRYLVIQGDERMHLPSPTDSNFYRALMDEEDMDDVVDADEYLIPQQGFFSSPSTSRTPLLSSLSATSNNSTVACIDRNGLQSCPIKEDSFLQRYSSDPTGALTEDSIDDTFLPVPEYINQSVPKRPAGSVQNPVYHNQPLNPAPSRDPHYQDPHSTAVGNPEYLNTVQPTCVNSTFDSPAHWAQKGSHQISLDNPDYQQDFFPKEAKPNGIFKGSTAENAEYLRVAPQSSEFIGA

Row | SMILES | IC50 [1] [µM] | GI50 [2] [µM] | GI50 [3] [µM] | IC50 [4] [µM] | IC50 [5] [µM] | IC50 [6] [µM] | IC50 [7] [µM]
1 | C=C(C)C(=O)Nc1cc(Nc2ncc(Cl)c(Nc3ccccc3P(C)(C)=O)n2)ccc1N1CCC2(CC1)CC(N(C)C)C2 [Compound 7, N-(5-((5-chloro-4-((2-(dimethylphosphoryl)phenyl)amino)pyrimidin-2-yl)amino)-2-(2-(dimethylamino)-7-azaspiro[3.5]nonan-7-yl)phenyl)methacrylamide] | < 0.01 | 0.01 to 0.05 | 0.01 to 0.05 | 0.01 to 0.05 |  |  | 
2 | CN(C)C/C=C/C(=O)Nc1cc(Nc2ncc(Cl)c(Nc3ccccc3P(C)(C)=O)n2)ccc1N1CCC2(CC1)CC(N(C)C)C2 [Compound 8, (E)-N-(5-((5-chloro-4-((2-(dimethylphosphoryl)phenyl)amino)pyrimidin-2-yl)amino)-2-(2-(dimethylamino)-7-azaspiro[3.5]nonan-7-yl)phenyl)-4-(dimethylamino)but-2-enamide] | < 0.01 | 0.01 to 0.05 | 0.01 to 0.05 | 0.01 to 0.05 | 0.01 to 0.05 |  | 
3 | C=C(F)C(=O)Nc1cc(Nc2ncc(Cl)c(Nc3ccccc3P(C)(C)=O)n2)ccc1N1CCC2(CC1)CC(N(C)C)C2 [Compound 9, N-(5-((5-chloro-4-((2-(dimethylphosphoryl)phenyl)amino)pyrimidin-2-yl)amino)-2-(2-(dimethylamino)-7-azaspiro[3.5]nonan-7-yl)phenyl)-2-fluoroacrylamide] | < 0.01 | 0.01 to 0.05 | 0.01 to 0.05 |  |  |  | 
4 | C=CC(=O)Nc1cc(Nc2ncc(Cl)c(Nc3ccc4nccnc4c3P(C)(C)=O)n2)ccc1N1CCC2(CC1)CC(N(C)C)C2 [Compound 10, N-(5-((5-chloro-4-((5-(dimethylphosphoryl)quinoxalin-6-yl)amino)pyrimidin-2-yl)amino)-2-(2-(dimethylamino)-7-azaspiro[3.5]nonan-7-yl)phenyl)acrylamide] | < 0.01 | < 0.01 | < 0.01 | 0.01 to 0.05 | < 0.01 |  | 

Second part, the compound after the results:

Row | IC50 [1] [µM] | GI50 [2] [µM] | GI50 [3] [µM] | IC50 [4] [µM] | IC50 [5] [µM] | IC50 [6] [µM] | IC50 [7] [µM] | SMILES
5 |  | 0.01 to 0.05 | 0.01 to 0.05 | 0.01 to 0.05 | 0.01 to 0.05 |  |  | C=CC(=O)Nc1cc(Nc2ncc(Br)c(Nc3ccc4nccnc4c3P(C)(C)=O)n2)ccc1N1CCC(N2CCN(C)CC2)CC1 [Compound 12, N-(5-((5-bromo-4-((5-(dimethylphosphoryl)quinoxalin-6-yl)amino)pyrimidin-2-yl)amino)-2-(4-(4-methylpiperazin-1-yl)piperidin-1-yl)phenyl)acrylamide]
6 | < 0.01 |  | 0.01 to 0.05 | < 0.01 | 0.01 to 0.05 | < 0.01 | < 0.01 | C=CC(=O)Nc1cc(Nc2ncc(C)c(Nc3ccccc3P(C)(C)=O)n2)ccc1N1CCC(N2CCN(C)CC2)CC1 [Compound 20, N-(5-((4-((2-(dimethylphosphoryl)phenyl)amino)-5-methylpyrimidin-2-yl)amino)-2-(4-(4-methylpiperazin-1-yl)piperidin-1-yl)phenyl)acrylamide]
7 | < 0.01 | < 0.01 | < 0.01 | 0.01 to 0.05 | 0.01 to 0.05 |  |  | C=CC(=O)Nc1cc(Nc2ncc(Cl)c(Nc3ccc4ccccc4c3P(C)(C)=O)n2)ccc1N1CCC2(CC1)CC(N(C)C)C2 [Compound 23, N-(5-((5-chloro-4-((1-(dimethylphosphoryl)naphthalen-2-yl)amino)pyrimidin-2-yl)amino)-2-(2-(dimethylamino)-7-azaspiro[3.5]nonan-7-yl)phenyl)acrylamide hydrochloric acid salt]
8 | < 0.01 | 0.01 to 0.05 | < 0.01 | 0.01 to 0.05 | 0.01 to 0.05 |  |  | C=CC(=O)Nc1cc(Nc2ncc(Cl)c(Nc3ccc4ncccc4c3P(C)(C)=O)n2)ccc1N1CCC2(CC1)CC(N(C)C)C2 [Compound 30, N-(5-((5-chloro-4-((5-(dimethylphosphoryl)quinolin-6-yl)amino)pyrimidin-2-yl)amino)-2-(2-(dimethylamino)-7-azaspiro[3.5]nonan-7-yl)phenyl)acrylamide]

Reference: patent US20220227796A1, “EGFR INHIBITORS, COMPOSITIONS AND METHODS THERE OF” (Betta Pharmaceuticals Co., Ltd., priority 2019, published 2022)
